Test results reported in patent US5698547A, “Cephalosporin antibiotics” (Microcide Pharmaceuticals, Inc., priority 1995, dated 1997).
Several values for one entry are separate records, joined by “and”; a condition that tells them apart may be missing. Identical values can stand only once. Counter-ions that a name gives are not always drawn. Like-named read-outs stand apart in the source and are kept apart here.

Key:
[1] = system: S. aureus Col8A (Meth^S) (lac^-); assay: MIC by agar dilution, S. aureus Col8A (Meth^S) (lac^-); assay type: cell-based
Description: (§1) The compounds of the invention were evaluated against several β-lactamresistant bacteria strains by determining the minimum inhibitory concentration (MIC, μg/ml) of each compound with respect to each strain. The MIC, the lowest concentration of antibiotic which inhibits growth of the test organism, was determined by the agar dilution method.
(§2) To determine the MIC for bacterial isolates, the test compound was incorporated in a series of two-fold dilutions into liquified Mueller-Hinton agar. Upon solidification, a number of different bacterial strains were spot inoculated with a replicating device onto the agar surface. […] The procedures used in these studies have been standardized by the National Committee for Clinical Laboratory Standards (NCCLS), as per the NCCLS publication entitled METHODS FOR DILUTION ANTIMICROBIAL SUSCEPTIBILITY TESTS (1991), which is incorporated herein by reference.
(§3) Aliquots of antimicrobial agents were prepared in phosphate buffered saline (PBS) at pH 7.2. Tween 20 or DMSO was used as a solubilizing vehicle as needed. Standard methods of vortexing, sonicating and gentle heat were used to facilitate solubilizing the test agent. Typically, the concentration of the stock solution was 10× that of the highest drug concentration tested. A 1.28 mg/mL stock solution was used with a subsequent highest working concentration of 128 μg/mL. Serial two-fold dilutions were done through ≤0.25 μg/mL. Each drug level was tested in duplicate. Two-fold drug dilutions were done in sterile 50 mL tubes with a final drug volume of 5 mL. Upon the addition of 45 mL of molten agar, a 10-fold dilution resulted. Two, 25 mL. plates were then poured into 15×150 mm square Petri plates with grids and allowed to harden.
(§4) A control plate with a reference drug, either cefotaxime, vancomycin or imipenem, was used as the positive growth control. Stock concentrations of reference antibiotics were prepared and frozen at -80° C. Upon preparation, the control plates were sealed and stored in the refrigerator for up to 1 week prior to use; however, imipenem control plates had to be prepared just prior to use. All test plates were used within 24 hours of preparation.
(§5) Satisfactory results were obtained where the inoculum contained about 10^4 colony forming units (cfu) ±0.5 logs. Starting with pure cultures of the test isolates on agar plates, a few isolated colonies were transferred to a tube of nutrient broth and allowed to grow 4-6 hours at 35°-36° C. to reach log-phase growth. Dropwise addition of the broth culture to PBS was done to match a 0.5 McFarland turbidity standard equal to 10^8 cfu/mL. This was further diluted ten-fold in PBS to reach a working inoculum concentration of 10^7 cfu/mL. When 1 μL of the working inoculum was applied to the agar surface a concentration of about 10^4 cfu per spot was obtained.
(§6) Disposable sterile 1 μL loops were used to inoculate test plates, with each isolate in a designated grid on the agar plate. An alternate method of inoculation involved the use of a replica plater, a device with 48 steel pins allowing the simultaneous inoculation of multiple isolates. After the spots had dried, the plates were incubated at 35°-36° C. for 16-20 hours. Endpoints were assessed as the minimum inhibitory concentration (MIC) of antimicrobial agent.
The novel agents of this invention are notable for their enhanced activity against S. aureus Col and Enterococci (E. faecium and E. faecalis). The S. aureus Col strain is a high-level PBP2a producer, whereas S. aureus Col 8A, its isogenic partner, lacks PBP2a. […] Thus, the compounds of the present invention are effective against PBP2a-producing bacteria.

[2] = system: methicillin-susceptible S. aureus strain ATCC 13709; assay: murine model for lethal bacteremic peritonitis; assay type: in vivo, female Swiss-Webster mice; conditions: subcutaneous, 72 h
Method in brief: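 Female Swiss-Webster mice challenged IP with an LD100 titer of bacteria in 7% hog gastric mucin; groups of 10 treated SC with twofold drug increments (0.01–512 mg/kg) as two equal doses at challenge and 2 h later. Survival followed for 72 h; PD50 (total mg/kg) calculated by probit method.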

[3] = system: S. aureus Col (Meth^R) (lac^-); assay: MIC by agar dilution, S. aureus Col (Meth^R) (lac^-); assay type: cell-based; conditions: for MIC: agar dilution, S. aureus Col (Meth^R) (lac^-)
Method in brief: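 Agar dilution per NCCLS (1991): two-fold dilutions from 128 μg/mL down to ≤0.25 μg/mL in Mueller-Hinton agar, each level in duplicate. Spots of about 10^4 cfu of log-phase culture; 16-20 h at 35°-36° C. MIC in μg/ml is the lowest concentration inhibiting growth.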

[4] = system: Enterococci (E. faecium and E. faecalis); assay: In vitro antibacterial evaluation, Enterococci; assay type: cell-based; conditions: in words
Description: as §1, §2, §3
A control plate with a reference drug, either cefotaxime, vancomycin or imipenem, was used as the positive growth control. […]
(§7) Disposable sterile 1 μL loops were used to inoculate test plates, with each isolate in a designated grid on the agar plate. […] Endpoints were assessed as the minimum inhibitory concentration (MIC) of antimicrobial agent.

[5] = system: S. aureus strain ATCC 13709; assay: Challenge strain MIC; assay type: cell-based; conditions: Staphylococcus aureus, ATCC13709; S. aureus ATCC 13709; read-out: Challenge str MIC
Description: as §1, §2
reported for challenge with methicillin-susceptible S. aureus

MRSA strains = conditions: in words, reported; cited from earlier work
E. faecium ATCC 35667 = assay: MIC by agar dilution, E. faecium ATCC 35667; assay type: cell-based
Description: as §1, §2, §3, §4, §5, §6

E. faecalis ATCC 29212 = assay: MIC by agar dilution, E. faecalis ATCC 29212; assay type: cell-based
Description: as §1, §2, §3, §4, §5, §6

S. haemolyticus (Meth^R) = assay: MIC by agar dilution, S. haemolyticus (Meth^R); assay type: cell-based
Description: as §1, §2, §3, §4, §5, §6

[6] = system: S. aureus 76 (Meth^R) (lac^+); assay: MIC by agar dilution, S. aureus 76 (Meth^R) (lac^+); assay type: cell-based
Description: as §1, §2, §3, §4, §5, §6

P. aeruginosa ATCC 27853 = assay: MIC by agar dilution, P. aeruginosa ATCC 27853; assay type: cell-based
Description: as §1, §2, §3, §4, §5, §6

S. aureus ATCC 25923 = assay: MIC by agar dilution, S. aureus ATCC 25923; assay type: cell-based
Description: as §1, §2
(§8) Aliquots of antimicrobial agents were prepared in phosphate buffered saline (PBS) at pH 7.2. Tween 20 or DMSO was used as a solubilizing vehicle as needed. Standard methods of vortexing, sonicating and gentle heat were used to facilitate solubilizing the test agent. […]
as §7

[7] = system: S. epidermidis ATCC 31432; assay: MIC by agar dilution, S. epidermidis ATCC 31432; assay type: cell-based
Description: as §1, §2, §8, §7

E. coli ATCC 25922 = assay: MIC by agar dilution, E. coli ATCC 25922; assay type: cell-based
Description: as §1, §2, §3, §4, §5, §6

In the case of `O=C(Cc1ccccc1)N[C@@H]1C(=O)N2C(C(=O)O)=C(Sc3ccccc3I)CS[C@H]12` [Cmpd 6, (7R)-7-[(Phenylacetyl)amino]-3-(o-iodophenylthio)-3-cephem-4-carboxylic acid], the “activity against S. aureus Col 8A” value ([1]; in words, lacks PBP2a) is reported as “broad activity”, the Mortality ([2]; dose 0.625 mg/kg) is reported as 9/10 and the Mortality ([2]; dose 1.25 mg/kg) is reported as 4/10. The Mortality ([2]; dose 2 mg/kg) was 8/10, the Mortality ([2]; dose 2.5 mg/kg) was 4/10 and the Mortality ([2]; dose 4 mg/kg) was 5/10. The Mortality ([2]; dose 5 mg/kg) was 1/10, the Mortality ([2]; dose 8 mg/kg) was 1/10 and the Mortality ([2]; dose 10 mg/kg) was 1/10. The Mortality ([2]; dose 16 mg/kg) was 0/10, the “activity against S. aureus Col” value ([3]; in words, PBP2a producer) was “broad activity” and the “activity against Enterococci” value [4] was “broad activity”.

With `N=C(N)NCCSCC(=O)N[C@@H]1C(=O)N2C(C(=O)O)=C(Sc3ccccc3CSC(=N)N)CS[C@H]12` [Cmpd 137, (7R)-7-[((2-guanidinoethylthio)acetyl)amino]-3-(2-isothiouroniummethylphenylthio)-3-cephem-4-carboxylate, trifluoroacetic acid salt] the Mortality ([2]; dose 0.0391 mg/kg) was 8/10, the Mortality ([2]; dose 0.0781 mg/kg) was 9/10 and the Mortality ([2]; dose 0.1562 mg/kg, trifluoroacetic acid salt) was 7/10 and 9/10. For the same compound, the Mortality ([2]; dose 0.3125 mg/kg, trifluoroacetic acid salt) was 5/10 and 8/10, the Mortality ([2]; dose 0.625 mg/kg, trifluoroacetic acid salt) was 6/10 and 1/10 and the Mortality ([2]; dose 1.25 mg/kg) was 0/10. For the same compound, the Mortality ([2]; dose 2.5 mg/kg) was 0/10, the ED50 ([2]; two equal doses, S. aureus ATCC 13709 IP challenge, trifluoroacetic acid salt, 4320 min) was 0.38 mg/kg and the MIC ([3]; Staphylococcus aureus, read-out: MIC) was 2 µg/mL. It also gave an MIC [5] of 0.125 µg/mL.

For `C[C@@H](O)[C@H]1C(=O)N2C(C(=O)O)=C(SCCN=CN)C[C@H]12` [imipenem], the “activity against MRSA strains” value (MRSA strains) is given as “active against a few MRSA strains”.

“(7R)-7-[(Phenylacetyl)amino]-3-(2,3-dihydro-2,2-dimethylbenzofuran-7-yl)-3-cephem-4-carboxylic acid [Cmpd 55]” showed an MIC ([1]; agar dilution, S. aureus Col8A (Meth^S) (lac^-)) of less than 0.25 µg/mL, an MIC (E. faecium ATCC 35667) of 8 µg/mL and an MIC (E. faecalis ATCC 29212) of 16 µg/mL. For the same compound, the MIC [3] was 4 µg/mL, the MIC (S. haemolyticus (Meth^R)) was 16 µg/mL and the MIC [6] was 16 µg/mL. The MIC (P. aeruginosa ATCC 27853) was greater than 32 µg/mL, the MIC (S. aureus ATCC 25923) was less than 0.25 µg/mL and the MIC [7] was less than 0.25 µg/mL. The MIC (E. coli ATCC 25922) was greater than 32 µg/mL.
